In one experiment the test system is MDAMB-231/U 251. Description: Anti-cancer screen (MTT), MDAMB-231/U 251. The experiment is classed as cell-based. As to conditions: for CC50: 48 h, read-out: MDAMB-231/U 251 LC50; for GI50 / IC (TGI): 48 hours with compound, MTT, tested at 0.01-100 µM. The protocol: (§1) Experimental drugs are screened for anti-cancer activity in three cell lines for their GI50, TGI and LC50 values (using five concentrations for each compound). The cell lines are maintained in DMEM containing 10% fetal bovine serum. 96 well micro titer plates are inoculated with cells in 100 µL for 24 hours at 37° C., 5% CO2, 95% air and 100% relative humidity. 5000 HCT 116 cells/well, 5000 NCIH 460 cells/well and 5000 U251 cells/well are plated. A separate plate with these cell lines is also inoculated to determine cell viability before the addition of the compounds (T0).
(§2) Following 24-hour incubation, experimental drugs are added to the 96 well plates. Each plate contains one of the above cell lines and the following in triplicate: five different concentrations (0.01, 0.1, 1, 10 and 100 µM) of four different compounds, appropriate dilutions of a cytotoxic standard and control (untreated) wells. Compounds are dissolved in DMSO to make 20 mM stock solutions on the day of drug addition and frozen at −20° C. Serial dilutions of these 20 mM stock solutions are made in complete growth medium such that 100 µL of these drug solutions in medium, of final concentrations equaling 0.01, 0.1, 1, 10 and 100 µM can be added to the cells in triplicate. Standard drugs whose anti-cancer activity has been well documented and which are regularly used are doxorubicin and SAHA.
(§3) For T0 measurement, 24 hours after seeding the cells, 10 µL of 3-(4,5-Dimethyl-2-thiazolyl)-2,5-diphenyl-2H-tetrazolium (MTT) solution per well is added and incubation carried out for 3 hours at 37° C., 5% CO2, 95% air and 100% relative humidity, protected from light. Cells incubated with compounds for 48 hours are treated similarly except with the addition of 20 µl MTT solution per well and a subsequent incubation under the same conditions. After 3 hours of MTT incubation, well contents are aspirated carefully followed by addition of 150 µL DMSO per well. Plates are agitated to ensure solution of the formazan crystals in DMSO and absorbance read at 570 nm.
(§4) Percent growth is calculated for each compound's concentration relative to the control and zero measurement wells (T0; viability right before compound addition). If a test well's O.D. value is greater than the T0 measurement for that cell line
(§5) %Growth=(test−zero)/(control−zero)×100
(§6) If a test well's O.D. value is lower than the T0 measurement for that cell line, then,
(§7) %Growth=(test−zero)/zero×100

The next experiment concerns NCIH460. Description: Anti-cancer screen (MTT), NCIH460. Particulars: Homo sapiens, NCI-H460, 48 hours with compound, tested at 0.01-100 µM. The experiment is classed as cell-based. How it is done: as §1, §2, §3, §4, §5, §6, §7
The subject of experiment [1] is NCIH460, HCT116, MDAMB-231/U 251. Description: Anti-cancer screen, mean GI50 over the cell lines. The experiment is classed as cell-based. As to conditions: in µM. The protocol:
as §1, §2, §3, §4

Another experiment concerns HCT116. Description: Anti-cancer screen (MTT), HCT116. The experiment is classed as cell-based. Particulars: Homo sapiens, HCT-116, 48 hours with compound, tested at 0.01-100 µM. The protocol:
as §1, §2, §3, §4, §5, §6, §7

Another experiment has as its system HDAC. Description: HDAC inhibition. The experiment is classed as biochemical. Particulars: for HDAC Inhibition 1 μM: compound at 1 μM; for HDAC Inhibition 10 μM: compound at 10 μM.

By GI50 is commonly meant the concentration giving 50% growth inhibition. As usually defined, the LC50 is the concentration lethal to half of the exposed cells or organisms.

As for `O=C(Cc1csc(NC(=O)OCc2cccnc2)n1)Nc1nc2ccccc2s1` [Example 11, Pyridin-3-ylmethyl{4-[2-(1,3-benzothiazol-2-ylamino)-2-oxoethyl]-1,3-thiazol-2-yl}carbamate], in the experiment on MDAMB-231/U 251, the CC50 was above 100 µM, the GI50 was 5 µM and the IC (TGI) came to 10 µM. Also, in the experiment with NCIH460, the GI50 turned out to be 7 µM, the IC (TGI) was above 100 µM and the LC50 is above 100 µM. For the same compound, the “Mean GI50” value in experiment [1] is 6. Further, in the experiment on HCT116, the 50% growth inhibitory concentration (GI50) is above 100 µM, the IC (TGI) was above 100 µM and the LC50 (concentration giving 50% net cell kill relative to T0) is above 100 µM.

As for `O=C(Nc1nc(CC(=O)N2CCC(N3CCCCC3)CC2)cs1)OCc1cccnc1` [Example 13, Pyridin-3-ylmethyl{4-[2-(1,4′-bipiperidin-1′-yl)-2-oxoethyl]-1,3-thiazol-2-yl}carbamate], in the experiment on MDAMB-231/U 251, the CC50 is above 100 µM, the GI50 amounted to 0.09 µM and the IC (TGI) is above 100 µM. In addition, in the experiment on NCIH460, the GI50 amounted to 2.8 µM, the IC (TGI) stood at 25 µM and the median lethal concentration (LC50) is above 100 µM. Also, in experiment [1], the “Mean GI50” value is above 100. Moreover, in the experiment on HCT116, the GI50 is above 100 µM, the IC (TGI) is above 100 µM and the LC50 (concentration giving 50% net cell kill relative to T0) was above 100 µM.

With `CON(C)C(=O)Cc1csc(NC(=O)OCc2cccnc2)n1` [Example 14, Pyridin-3-ylmethyl(4-{2-[methoxy(methyl)amino]-2-oxoethyl}-1,3-thiazol-2-yl)carbamate], in the experiment on MDAMB-231/U 251, the CC50 is above 100 µM, the GI50 is above 100 µM and the IC (TGI) was above 100 µM. Also, in the experiment on NCIH460, the GI50 came to 10 µM, the IC (TGI) was above 100 µM and the LC50 was above 100 µM. For the same compound, the “Mean GI50” value in experiment [1] is 45. Besides, in the experiment with HCT116, the GI50 stood at 80 µM, the IC (TGI) was above 100 µM and the LC50 (concentration giving 50% net cell kill relative to T0) is above 100 µM.

In the case of `CNC(=O)Cc1csc(NC(=O)OCc2cccnc2)n1` [Example 15, Pyridin-3-ylmethyl{4-[2-(methylamino)-2-oxoethyl]-1,3-thiazol-2-yl}carbamate], in the experiment with MDAMB-231/U 251, the CC50 was above 100 µM, the GI50 worked out at 60 µM and the IC (TGI) is above 100 µM. For the same compound, in the experiment with NCIH460, the GI50 was 60 µM, the IC (TGI) is above 100 µM and the 50% lethal concentration (LC50) was above 100 µM. Also, the “Mean GI50” value in experiment [1] was found to be 73.3. For the same compound, in the experiment on HCT116, the GI50 came out at 100 µM, the IC (TGI) is above 100 µM and the LC50 (concentration giving 50% net cell kill relative to T0) was above 100 µM.

As to `CN(C)C(=O)Cc1csc(NC(=O)OCc2cccnc2)n1` [Example 16, Pyridin-3-ylmethyl{4-[2-(dimethylamino)-2-oxoethyl]-1,3-thiazol-2-yl}carbamate], in the experiment on MDAMB-231/U 251, the CC50 was above 100 µM, the 50% growth inhibitory concentration (GI50) was determined as 20 µM and the IC (TGI) is above 100 µM. In the experiment with NCIH460, the GI50 came out at 8 µM, the IC (TGI) is above 100 µM and the LC50 is above 100 µM. The “Mean GI50” value in experiment [1] was 14. For the same compound, in the experiment on HCT116, the GI50 is above 100 µM, the IC (TGI) was above 100 µM and the LC50 (concentration giving 50% net cell kill relative to T0) is above 100 µM.

As for `Nc1ccccc1NC(=O)Cc1csc(NC(=O)OCc2c(F)c(F)c(F)c(F)c2F)n1` [Example 22, Pentafluorobenzyl(4-{2-[(2-aminophenyl)amino]-2-oxoethyl}-1,3-thiazol-2-yl)carbamate], in the experiment on MDAMB-231/U 251, the CC50 is above 100 µM, the GI50 is 10 µM and the IC (TGI) was above 100 µM. In the experiment on NCIH460, the GI50 is 48 µM, the IC (TGI) is above 100 µM and the LC50 was above 100 µM. In addition, in experiment [1], the “Mean GI50” value stood at 37. In addition, in the experiment with HCT116, the 50% growth inhibitory concentration (GI50) was 53 µM, the IC (TGI) is above 100 µM and the LC50 (concentration giving 50% net cell kill relative to T0) is above 100 µM.

Regarding `O=C(NCc1ccc(C(=O)NO)cc1)OCc1c(F)c(F)c(F)c(F)c1F` [Example 29, Pentafluorobenzyl{4-[(hydroxyamino)carbonyl]benzyl}carbamate], in the experiment on MDAMB-231/U 251, the CC50 was above 100 µM, the GI50 came out at 3.1 µM and the IC (TGI) is above 100 µM. In the experiment on NCIH460, the GI50 was determined as 0.4 µM, the IC (TGI) was 22.5 µM and the LC50 came to 82.5 µM. Moreover, the “Mean GI50” value in experiment [1] was found to be 1.5. In addition, in the experiment on HCT116, the GI50 amounted to 0.98 µM, the IC (TGI) amounted to 3.5 µM and the LC50 (concentration giving 50% net cell kill relative to T0) came to 48 µM.

With `Nc1ccccc1NC(=O)c1ccc(CNC(=O)OCc2ccsc2)cc1` [Example 49, 3-Thienylmethyl(4-{[(2-aminophenyl)amino]carbonyl}benzyl)carbamate], in the experiment with HDAC, the “HDAC Inhibition 1 μM” value is given as 10.15 and the “HDAC Inhibition 10 μM” value was found to be 18.78. Moreover, in the experiment on MDAMB-231/U 251, the CC50 came out at 82 µM, the GI50 is 31 µM and the IC (TGI) worked out at 56 µM. Besides, in the experiment with NCIH460, the GI50 is 42 µM, the IC (TGI) is 96 µM and the LC50 was above 100 µM. For the same compound, in the experiment with HCT116, the GI50 amounted to 2 µM, the IC (TGI) was found to be 59 µM and the LC50 (concentration giving 50% net cell kill relative to T0) is above 100 µM.

With `CN1CCN(C(=O)c2ccc(CNC(=O)OCc3ccsc3)cc2)CC1` [Example 50, 3-Thienylmethyl{4-[(4-methylpiperazin-1-yl)carbonyl]benzyl}carbamate], in the experiment with HDAC, the “HDAC Inhibition 1 μM” value was −3.95 and the “HDAC Inhibition 10 μM” value was determined as 1.45. For the same compound, in the experiment with MDAMB-231/U 251, the CC50 was above 100 µM, the concentration for 50% growth inhibition (GI50) is 65 µM and the IC (TGI) was above 100 µM. Further, in the experiment with NCIH460, the GI50 came to 64 µM, the IC (TGI) is above 100 µM and the LC50 is above 100 µM. Besides, in the experiment on HCT116, the GI50 turned out to be 64 µM, the IC (TGI) was above 100 µM and the LC50 (concentration giving 50% net cell kill relative to T0) was above 100 µM.

Turning to `O=C(NCc1ccc(C(=O)N2CCOCC2)cc1)OCc1ccsc1` [Example 51, 3-Thienylmethyl[4-(morpholin-4-ylcarbonyl)benzyl]carbamate], in the experiment with HDAC, the “HDAC Inhibition 1 μM” value came out at 3.20 and the “HDAC Inhibition 10 μM” value turned out to be 3.18. In the experiment with MDAMB-231/U 251, the CC50 was above 100 µM, the GI50 is above 100 µM and the IC (TGI) is above 100 µM. In the experiment on NCIH460, the GI50 was 94.5 µM, the IC (TGI) was above 100 µM and the LC50 was above 100 µM. In the experiment with HCT116, the GI50 is above 100 µM, the IC (TGI) is above 100 µM and the LC50 (concentration giving 50% net cell kill relative to T0) is above 100 µM.

On to `CS(=O)(=O)Oc1ccc(NC(=O)c2ccc(CNC(=O)OCc3cccs3)cc2)cc1` [Example 70, 4-[(4-{[(2-thienylmethyloxycarbonyl)amino]methyl}benzoyl)amino]phenylmethanesulfonate], for which the “Mean GI50” value in experiment [1] is listed as 19.65.

As for `CCOC(=O)CN(OC)C(=O)c1ccc(CNC(=O)OCc2cccs2)cc1` [Example 109, ethyl{methoxy[4-({[(2-thienylmethoxy)carbonyl]amino}-methyl)benzoyl]amino}acetate], in the experiment with HDAC, the “HDAC Inhibition 1 μM” value was 8.84 and the “HDAC Inhibition 10 μM” value came to 15.41.

For the origin of these results see US20100152188A1, “Novel Heterocyclic Compounds” (priority 2005, published 2010).
